This note sets out measurements from ChEMBL document CHEMBL4706551, “Rational design of new multitarget histamine H receptor ligands as potential candidates for treatment of Alzheimer's disease” (Eur J Med Chem, 2020).

Each structure is given as a SMILES string. Some results are limits rather than exact numbers.

Sequence of Acetylcholinesterase (O42275 whole entry): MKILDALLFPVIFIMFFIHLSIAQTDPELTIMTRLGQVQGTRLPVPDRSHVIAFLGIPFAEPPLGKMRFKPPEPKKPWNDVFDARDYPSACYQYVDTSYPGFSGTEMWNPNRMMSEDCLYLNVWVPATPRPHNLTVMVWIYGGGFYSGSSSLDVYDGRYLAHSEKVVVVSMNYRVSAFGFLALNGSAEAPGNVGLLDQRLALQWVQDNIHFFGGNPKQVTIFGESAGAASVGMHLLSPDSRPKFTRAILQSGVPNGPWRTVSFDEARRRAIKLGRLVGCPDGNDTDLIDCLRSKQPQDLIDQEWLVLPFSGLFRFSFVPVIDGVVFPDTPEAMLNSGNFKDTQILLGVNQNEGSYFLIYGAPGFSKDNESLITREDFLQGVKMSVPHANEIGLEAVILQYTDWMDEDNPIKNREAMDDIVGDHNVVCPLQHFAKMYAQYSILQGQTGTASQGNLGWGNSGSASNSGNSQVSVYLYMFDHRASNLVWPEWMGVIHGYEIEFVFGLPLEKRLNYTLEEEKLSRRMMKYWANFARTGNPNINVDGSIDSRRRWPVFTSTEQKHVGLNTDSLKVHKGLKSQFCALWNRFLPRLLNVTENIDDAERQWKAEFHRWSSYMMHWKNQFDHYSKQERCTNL

The first data set addresses Acetylcholinesterase (Electrophorus electricus, UniProt O42275).
Assay: not given
Settings: not given
On to `CC1CCN(CCCCCCOc2ccc3oc4ccccc4c(=O)c3c2)CC1`, for which inhibition was half-maximal at 406 nM (IC50).

Turning to `CC1CCCN(CCCCCOc2ccc3oc4ccccc4c(=O)c3c2)C1` (stereo unspecified), the IC50 (usually the concentration at which inhibition is half-maximal) worked out at 342 nM.

In turn, `CC1CCCN(CCCCCOc2ccc3oc4cc(Cl)ccc4c(=O)c3c2)C1` (stereo unspecified) gave an IC50 of 353 nM.

Compound `O=c1c2ccccc2oc2ccc(OCCCCCCN3CCCCC3)cc12` displayed an IC50 of 358 nM.

For `CC1CCCN(CCCCCOc2ccc3oc4ccc(Cl)cc4c(=O)c3c2)C1` (stereo unspecified), the IC50 was found to be 691 nM.

For the compound `O=c1c2ccc(Cl)cc2oc2ccc(OCCCCCCN3CCCCC3)cc12`, half-maximal inhibition (IC50) required 378 nM.

As for `CC1CCCN(CCCCCCOc2ccc3oc4ccc(Cl)cc4c(=O)c3c2)C1` (stereo unspecified), the IC50 amounted to 307 nM.

Compound `CC1CCN(CCCCCCOc2ccc3oc4cc(Cl)ccc4c(=O)c3c2)CC1` displayed a half-inhibitory concentration (IC50) of 561 nM.

`O=c1c2cc(Cl)ccc2oc2ccc(OCCCCCN3CCCCC3)cc12` registered an IC50 of 238 nM.

Take `CC1CCCN(CCCCCCOc2ccc3oc4ccccc4c(=O)c3c2)C1` (stereo unspecified): the IC50 stood at 387 nM.

On to `CC1CCN(CCCCCCOc2ccc3oc4ccc(Cl)cc4c(=O)c3c2)CC1`, for which the IC50 worked out at 525 nM.

In a further data set the target is Cholinesterase (Equus caballus, UniProt P81908).
Sequence of Cholinesterase (P81908 whole entry): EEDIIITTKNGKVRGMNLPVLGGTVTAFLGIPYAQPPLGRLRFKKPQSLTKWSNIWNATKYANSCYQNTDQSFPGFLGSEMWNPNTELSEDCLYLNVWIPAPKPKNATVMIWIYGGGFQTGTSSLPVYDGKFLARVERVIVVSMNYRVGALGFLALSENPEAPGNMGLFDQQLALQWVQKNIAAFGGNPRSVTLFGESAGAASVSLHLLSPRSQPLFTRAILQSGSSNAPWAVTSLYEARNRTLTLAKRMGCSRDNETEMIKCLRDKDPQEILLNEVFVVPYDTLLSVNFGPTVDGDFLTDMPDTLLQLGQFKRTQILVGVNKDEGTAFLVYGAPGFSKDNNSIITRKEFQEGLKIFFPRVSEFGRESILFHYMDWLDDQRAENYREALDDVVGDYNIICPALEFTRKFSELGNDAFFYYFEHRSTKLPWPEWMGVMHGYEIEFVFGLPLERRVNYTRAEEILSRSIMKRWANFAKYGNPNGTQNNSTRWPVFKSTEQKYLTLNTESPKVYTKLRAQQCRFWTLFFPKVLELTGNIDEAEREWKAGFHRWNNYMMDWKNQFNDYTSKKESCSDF
Assay: not given
Settings: not given
`CC1CCN(CCCCCCOc2ccc3oc4ccccc4c(=O)c3c2)CC1` registered an IC50 of 965 nM.

With `CC1CCCN(CCCCCOc2ccc3oc4ccccc4c(=O)c3c2)C1` (stereo unspecified), inhibition was half-maximal at 978 nM (IC50).

In the case of `CC1CCCN(CCCCCOc2ccc3oc4cc(Cl)ccc4c(=O)c3c2)C1` (stereo unspecified), the IC50 stood at 2830 nM.

In the case of `O=c1c2ccccc2oc2ccc(OCCCCCCN3CCCCC3)cc12`, the IC50 is 2000 nM.

As for `CC1CCCN(CCCCCOc2ccc3oc4ccc(Cl)cc4c(=O)c3c2)C1` (stereo unspecified), the IC50 worked out at 685 nM.

Turning to `O=c1c2ccc(Cl)cc2oc2ccc(OCCCCCCN3CCCCC3)cc12`, the IC50 was found to be 1980 nM.

`CC1CCCN(CCCCCCOc2ccc3oc4ccc(Cl)cc4c(=O)c3c2)C1` (stereo unspecified) gave an IC50 of 1470 nM.

`CC1CCN(CCCCCCOc2ccc3oc4cc(Cl)ccc4c(=O)c3c2)CC1` displayed an IC50 of 1510 nM.

In turn, `O=c1c2cc(Cl)ccc2oc2ccc(OCCCCCN3CCCCC3)cc12` came in with an IC50 of 983 nM.

Take `CC1CCCN(CCCCCCOc2ccc3oc4ccccc4c(=O)c3c2)C1` (stereo unspecified): 1150 nM corresponded to half-maximal inhibition (IC50).

In the case of `CC1CCN(CCCCCCOc2ccc3oc4ccc(Cl)cc4c(=O)c3c2)CC1`, inhibition was half-maximal at 899 nM (IC50).

The target in a further data set is Histamine H3 receptor (Homo sapiens, UniProt Q9Y5N1). Nature of the data set: biochemical.
Sequence of Histamine H3 receptor (Q9Y5N1 whole entry): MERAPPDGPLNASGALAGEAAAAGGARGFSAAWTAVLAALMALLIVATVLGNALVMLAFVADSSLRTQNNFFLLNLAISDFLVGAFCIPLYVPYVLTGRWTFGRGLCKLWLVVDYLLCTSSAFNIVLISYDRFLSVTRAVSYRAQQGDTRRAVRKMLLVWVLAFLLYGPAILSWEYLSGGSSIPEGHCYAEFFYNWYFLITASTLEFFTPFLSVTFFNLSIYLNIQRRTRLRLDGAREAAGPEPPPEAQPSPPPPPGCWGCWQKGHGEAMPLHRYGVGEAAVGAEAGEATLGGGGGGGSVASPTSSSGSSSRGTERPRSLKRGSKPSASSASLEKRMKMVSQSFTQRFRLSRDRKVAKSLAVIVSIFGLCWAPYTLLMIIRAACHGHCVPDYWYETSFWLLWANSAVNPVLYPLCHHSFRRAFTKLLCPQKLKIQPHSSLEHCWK
Settings: not given
Consider `CC1CCN(CCCCCCOc2ccc3oc4ccccc4c(=O)c3c2)CC1`, for which the affinity, expressed as Ki, was 97 nM.

With `CC1CCCN(CCCCCOc2ccc3oc4ccccc4c(=O)c3c2)C1` (stereo unspecified), the affinity, expressed as Ki, was 156 nM.

Turning to `CC1CCCN(CCCCCOc2ccc3oc4cc(Cl)ccc4c(=O)c3c2)C1` (stereo unspecified), the affinity, expressed as Ki, was 56 nM.

Regarding `O=c1c2ccccc2oc2ccc(OCCCCCCN3CCCCC3)cc12`, the Ki (in general, the dissociation constant of the complex between target and ligand, obtained from inhibition or displacement) turned out to be 1060 nM.

In the case of `CC1CCCN(CCCCCOc2ccc3oc4ccc(Cl)cc4c(=O)c3c2)C1` (stereo unspecified), the affinity, expressed as Ki, was 148 nM.

The compound `O=c1c2ccc(Cl)cc2oc2ccc(OCCCCCCN3CCCCC3)cc12` showed a Ki of 203 nM.

Compound `CC1CCCN(CCCCCCOc2ccc3oc4ccc(Cl)cc4c(=O)c3c2)C1` (stereo unspecified) gave a Ki of 436 nM.

For `CC1CCN(CCCCCCOc2ccc3oc4cc(Cl)ccc4c(=O)c3c2)CC1`, the Ki came out at 520 nM.

On to `O=c1c2cc(Cl)ccc2oc2ccc(OCCCCCN3CCCCC3)cc12`, for which affinity was put at a Ki of 150 nM.

In turn, `CC1CCCN(CCCCCCOc2ccc3oc4ccccc4c(=O)c3c2)C1` (stereo unspecified) returned a Ki of 100 nM.

With `CC1CCN(CCCCCCOc2ccc3oc4ccc(Cl)cc4c(=O)c3c2)CC1`, the inhibition constant Ki stood at 465 nM.

A further data set has as its target T1, MAO-A (Homo sapiens, UniProt P21397).
T1 sequence (P21397 whole entry): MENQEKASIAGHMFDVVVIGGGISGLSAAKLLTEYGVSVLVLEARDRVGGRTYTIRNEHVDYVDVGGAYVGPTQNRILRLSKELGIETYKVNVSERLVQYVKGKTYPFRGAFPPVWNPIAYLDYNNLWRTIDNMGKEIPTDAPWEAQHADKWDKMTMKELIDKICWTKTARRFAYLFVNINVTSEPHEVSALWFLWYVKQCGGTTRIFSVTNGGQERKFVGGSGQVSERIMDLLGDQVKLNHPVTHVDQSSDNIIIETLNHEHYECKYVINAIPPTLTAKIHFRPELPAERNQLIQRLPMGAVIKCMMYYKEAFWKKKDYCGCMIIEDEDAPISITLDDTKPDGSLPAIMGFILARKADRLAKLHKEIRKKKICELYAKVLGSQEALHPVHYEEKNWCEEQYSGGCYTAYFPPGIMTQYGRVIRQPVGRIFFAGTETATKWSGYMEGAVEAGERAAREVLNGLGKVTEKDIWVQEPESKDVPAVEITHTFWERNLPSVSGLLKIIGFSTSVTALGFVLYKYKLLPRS
Nature of the data set: in vitro. Conditions: probe p-tyramine.
Description: Inhibition of recombinant human MAO-A expressed in baculovirus infected BTI cells at 1 uM using p-tyramine as substrate by fluorometric assay relative to control
`CC1CCN(CCCCCCOc2ccc3oc4ccccc4c(=O)c3c2)CC1`: 1 µM produced 6% inhibition.

Turning to `CC1CCCN(CCCCCOc2ccc3oc4ccccc4c(=O)c3c2)C1` (stereo unspecified), the inhibition (usually the drop in the measured response relative to a control, in per cent) at 1 µM is 1%.

`CC1CCCN(CCCCCOc2ccc3oc4cc(Cl)ccc4c(=O)c3c2)C1` (stereo unspecified) had an inhibition at 1 µM of 11%.

`O=c1c2ccccc2oc2ccc(OCCCCCCN3CCCCC3)cc12`: the inhibition at 1 µM is 4%.

Compound `CC1CCCN(CCCCCOc2ccc3oc4ccc(Cl)cc4c(=O)c3c2)C1` (stereo unspecified) registered an inhibition at 1 µM of 2%.

Compound `O=c1c2ccc(Cl)cc2oc2ccc(OCCCCCCN3CCCCC3)cc12` yielded an inhibition at 1 µM of 8%.

For the compound `CC1CCCN(CCCCCCOc2ccc3oc4ccc(Cl)cc4c(=O)c3c2)C1` (stereo unspecified), 1 µM produced 28% inhibition.

`CC1CCN(CCCCCCOc2ccc3oc4cc(Cl)ccc4c(=O)c3c2)CC1` yielded an inhibition at 1 µM of 37%.

As to `O=c1c2cc(Cl)ccc2oc2ccc(OCCCCCN3CCCCC3)cc12`, the inhibition at 1 µM was 5%.

In the case of `CC1CCCN(CCCCCCOc2ccc3oc4ccccc4c(=O)c3c2)C1` (stereo unspecified), the inhibition at 1 µM was 4%.

`CC1CCN(CCCCCCOc2ccc3oc4ccc(Cl)cc4c(=O)c3c2)CC1` returned an inhibition at 1 µM of 28%.

In another data set the target is T2, Amine oxidase [flavin-containing] B (Homo sapiens, UniProt P27338).
T2 sequence (P27338 whole entry): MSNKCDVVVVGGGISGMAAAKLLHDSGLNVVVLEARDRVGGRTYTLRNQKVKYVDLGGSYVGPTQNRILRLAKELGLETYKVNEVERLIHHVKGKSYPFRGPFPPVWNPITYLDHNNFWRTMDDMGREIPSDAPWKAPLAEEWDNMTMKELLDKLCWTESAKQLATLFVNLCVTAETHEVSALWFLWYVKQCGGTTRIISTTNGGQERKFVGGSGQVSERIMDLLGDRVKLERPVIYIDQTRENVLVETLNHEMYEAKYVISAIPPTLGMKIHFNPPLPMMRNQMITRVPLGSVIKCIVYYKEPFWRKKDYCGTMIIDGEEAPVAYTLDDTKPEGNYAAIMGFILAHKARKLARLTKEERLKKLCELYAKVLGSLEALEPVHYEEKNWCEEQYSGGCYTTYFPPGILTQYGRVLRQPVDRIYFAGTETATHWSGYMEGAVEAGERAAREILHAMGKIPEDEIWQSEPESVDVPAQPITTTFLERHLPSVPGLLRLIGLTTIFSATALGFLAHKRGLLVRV
The data set is described as follows: biochemical. In kind it is cell-based, BTI.
Settings: not given
Compound `CC1CCN(CCCCCCOc2ccc3oc4ccccc4c(=O)c3c2)CC1` came in with an IC50 of 856 nM.

On to `CC1CCCN(CCCCCOc2ccc3oc4ccccc4c(=O)c3c2)C1` (stereo unspecified), for which the IC50 was found to be 4200 nM.

`CC1CCCN(CCCCCOc2ccc3oc4cc(Cl)ccc4c(=O)c3c2)C1` (stereo unspecified): it took 1980 nM to reach half-maximal inhibition (IC50).

For the compound `O=c1c2ccccc2oc2ccc(OCCCCCCN3CCCCC3)cc12`, half-maximal inhibition (IC50) was put at 939 nM.

As for `CC1CCCN(CCCCCOc2ccc3oc4ccc(Cl)cc4c(=O)c3c2)C1` (stereo unspecified), the half-maximal inhibitory concentration (IC50) is 665 nM.

Turning to `O=c1c2ccc(Cl)cc2oc2ccc(OCCCCCCN3CCCCC3)cc12`, half-maximal inhibition (IC50) was put at 946 nM.

For the compound `CC1CCCN(CCCCCCOc2ccc3oc4ccc(Cl)cc4c(=O)c3c2)C1` (stereo unspecified), the IC50 came to 717 nM.

Compound `CC1CCN(CCCCCCOc2ccc3oc4cc(Cl)ccc4c(=O)c3c2)CC1` had an IC50 of 1640 nM.

For `O=c1c2cc(Cl)ccc2oc2ccc(OCCCCCN3CCCCC3)cc12`, the IC50 is 756 nM.

For `CC1CCCN(CCCCCCOc2ccc3oc4ccccc4c(=O)c3c2)C1` (stereo unspecified), the IC50 was found to be 1550 nM.

`CC1CCN(CCCCCCOc2ccc3oc4ccc(Cl)cc4c(=O)c3c2)CC1` returned an IC50 of 720 nM.

The target in a further data set is T1, MAO-A. The data set is described as follows: Inhibition of recombinant human MAO-A expressed in baculovirus infected BTI cells at 10 uM using p-tyramine as substrate by fluorometric assay relative to control. Conditions: probe p-tyramine.
For `CC1CCN(CCCCCCOc2ccc3oc4ccccc4c(=O)c3c2)CC1`, the inhibition at 10 µM is < 50%.

For `CC1CCCN(CCCCCOc2ccc3oc4ccccc4c(=O)c3c2)C1` (stereo unspecified), the inhibition at 10 µM was < 50%.

Consider `CC1CCCN(CCCCCOc2ccc3oc4cc(Cl)ccc4c(=O)c3c2)C1` (stereo unspecified), for which the inhibition at 10 µM was < 50%.

Turning to `O=c1c2ccccc2oc2ccc(OCCCCCCN3CCCCC3)cc12`, the inhibition at 10 µM is < 50%.

In the case of `CC1CCCN(CCCCCOc2ccc3oc4ccc(Cl)cc4c(=O)c3c2)C1` (stereo unspecified), the inhibition at 10 µM is < 50%.

Take `O=c1c2ccc(Cl)cc2oc2ccc(OCCCCCCN3CCCCC3)cc12`: the inhibition at 10 µM was < 50%.

Regarding `CC1CCCN(CCCCCCOc2ccc3oc4ccc(Cl)cc4c(=O)c3c2)C1` (stereo unspecified), the inhibition at 10 µM was < 50%.

Turning to `CC1CCN(CCCCCCOc2ccc3oc4cc(Cl)ccc4c(=O)c3c2)CC1`, the inhibition at 10 µM was < 50%.

As for `O=c1c2cc(Cl)ccc2oc2ccc(OCCCCCN3CCCCC3)cc12`, the inhibition at 10 µM is < 50%.

In the case of `CC1CCCN(CCCCCCOc2ccc3oc4ccccc4c(=O)c3c2)C1` (stereo unspecified), the inhibition at 10 µM is < 50%.

`CC1CCN(CCCCCCOc2ccc3oc4ccc(Cl)cc4c(=O)c3c2)CC1`: the inhibition at 10 µM was < 50%.
